The values that follow come from publication PMC9804781, “Identification of a Novel Pseudo‐Natural Product Type IV IDO1 Inhibitor Chemotype” (Angewandte Chemie (International Ed. in English), 2022).

Like-named read-outs stand apart in the source and are kept apart here.

For series [1], the system named is Kyn levels in HeLa cells. Kind of series: Manual Kyn assay in HeLa cells (p-DMAB detection). The conditions noted are these: for IC50: IFN-γ, L-Trp, p-DMAB. It is filed as cell-based. The protocol:
(§1) Mammalian cell lines were maintained at 37°C and 5% CO2 in a humidified atmosphere and sub-cultivated twice a week. All cell lines were tested regularly for mycoplasma contamination and were always free of mycoplasma. BxPC-3 cells (DSMZ#760) were grown in RPMI-1640 medium supplemented with 10% FBS, 2 mM L-glutamine, 1 mM sodium pyruvate, 4.5 g/L glucose, 10 mM HEPES and 1.5 g/L NaHCO3. HeLa cells (DSMZ#57) were cultivated in DMEM supplemented with 10% FBS, 4.5 g/L glucose, 4 mM L-glutamine 1 mM sodium pyruvate, 1% non-essential amino acids, 3.7 g/L NaHCO3. SKOV-3 cells (ATCC#HTB-77) were maintained in modified McCoy’s 5A medium supplemented with 10% FBS, 1.5 mM L-glutamine and 2.2 g/L NaHCO3. […]
For manual testing, BxPC-3, HeLa or SKOV-3 cells (20,000 cells/well, 5,000 cells/well or 6,250 cells/well, respectively) were seeded in 96-well plates (BxPC-3 and HeLa) or 384-well plates (SKOV-3) in medium without phenol red. After 24 h, the IDO1 pathway was induced by addition of 50 ng/mL (BxPC-3 and HeLa) or 17.6 ng/mL IFN-γ (SKOV-3) and 380 µM (BxPC-3), 164.15 µM (HeLa) or 450 µM L-Trp (SKOV-3) with simultaneous treatment with the compounds at the indicated concentrations followed by incubation for 48 h. For the hemin competition assay, hemin was added together with IFN-γ, L-Trp and the compounds. Subsequently, trichloroacetic acid was added to a final concentration of 7% (v/v), the plates were incubated for 15 min at room […]
(§2) temperature and centrifuged for 10 min at 1800 x g. Afterwards, an equal volume of freshly prepared 2% (w/v) p-DMAB in glacial acetic acid (Ehrlich reagent) was added prior to measuring the absorbance at 492 nm and 650 nm on the Spark® Multimode Microplate Reader (Tecan, AT).
To determine the Kyn levels, the absorbance of the Kyn-p-DMAB adduct A492 was subtracted by the background absorbance A650 and normalized to the DMSO control. Data analysis was performed using a non-linear regression curve fit and GraphPad Prism 9.0 (GraphPad Software, Inc, US) to generate dose-response curves and obtain IC50 values. […]
Subsequently, 10 mM ascorbic acid, 10 μM methylene blue, 2 mM L-Trp and 100 μg/mL catalase were added and samples were incubated for 60 min at room temperature or 37°C. […]

Series [2] can be described thus: Stability of Apoxidole-1 in Serum. Particulars: 400 µM in FBS, 37°C, up to 48 h. It is filed as in vitro ADME. The protocol:
transparent microplates (UV-STAR®, Greiner AG, AT). Subsequently, absorbance spectra from 250 nm to 550 nm were recorded on the Spark® Multimode Microplate Reader (Tecan, AT).
SKOV-3 cells (1.25 x 10^6 cells/flask) were seeded in two T75 tissue culture flasks and incubated for 24 h prior to addition of 17.6 ng/mL IFN-γ and 10 µM succinylacetone (SA, heme synthesis inhibitor). After 24 h, cells were treated with the compound (C) or DMSO (V, vehicle) for 15 min at 37°C. Cells were detached with trypsin/EDTA and washed thrice in cold PBS after resuspension in cold PBS. C- and V-treated samples were distributed equally into ten tubes each and subjected to heating at different temperatures in the MasterCycler EpGradient S (Eppendorf SE, DE). Afterwards, NP-40 alternative was added to a final concentration of 0.4% (v/v) and cells were lysed by five consecutive freeze/thaw cycles. Soluble fractions were separated from denatured proteins by centrifugation at 100,000 x g and 4°C for 20 min. […]
A truncated version of recombinant human GST-IDO1 (rhIDO1) consisting of amino acids 5-400 of the 403 amino acid-long full-length human IDO1 was expressed in E. coli and purified as published previously.[15] The heme cofactor was released from IDO1 by overnight incubation with 2-mercaptoethanesulfonate (MESNA) as described previously[18] and heme occupancy was determined by UV/Vis spectrophotometry. […]

Series [3] deals with Kyn levels in BxPC-3 cells. Kind of series: Manual Kyn assay in BxPC-3 cells (p-DMAB detection), incl. hemin competition. It is filed as cell-based. The conditions noted are these: IFN-γ, L-Trp. As to the method:
as §1
For manual testing, BxPC-3, HeLa or SKOV-3 cells (20,000 cells/well, 5,000 cells/well or 6,250 cells/well, respectively) were seeded in 96-well plates (BxPC-3 and HeLa) or 384-well plates (SKOV-3) in medium without phenol red. […]
as §2
To determine the Kyn levels, the absorbance of the Kyn-p-DMAB adduct A492 was subtracted by the background absorbance A650 and normalized to the DMSO control. […]

On to `CCOC(=O)C1=CC[C@](C(=O)OC)(c2cc3ccccc3n2C)N(S(=O)(=O)c2ccc(C)cc2)[C@@H]1C(=O)OC(C)(C)C` [Compound 3d], for which the “fold less active than enantiopure apoxidole-1 (Kyn assay)” value in series [1] worked out at 72 fold. Besides, the 50% inhibitory concentration (IC50) (commonly the concentration needed to halve the response being measured) in series [1] (Homo sapiens, HeLa, 48 h, 48 h, mean±SD, n=3, read-out: Kyn assay IC50 HeLa) came to 0.0467 ± 0.0024 µM; in series [1] (48 h, mean±SD, n=3, listed as apoxidole-1, read-out: Kyn assay IC50 HeLa), 0.0467 ± 0.00244 µM; in series [1] (compounds 48 h, mean n=3 ±SD, listed as 3d^a, read-out: Kyn Assay IC50), 0.28 ± 0.04 µM; in series [1] (compounds 48 h, mean n=3 ±SD, listed as 3d^ab, read-out: Kyn Assay IC50) it was 3.41 ± 0.26 µM; in series [1] (compounds 48 h, mean n=3 ±SD, listed as 3d^b, read-out: Kyn Assay IC50) it was 0.047 ± 0.002 µM; in series [1] (compounds 48 h, mean n=3 ±SD, read-out: Kyn Assay IC50) it was 0.07 ± 0.01 µM. For the same compound, in series [2], the “integrity of the compound in serum” value is “confirmed”. In addition, the “effect of free hemin on potency in the Kyn assay” value in series [3] (BxPC-3, hemin, 600 nM apoxidole-1, 48 h) is “reduced the potency”. In addition, in series [3] (BxPC-3 cells, 48 h, p-DMAB), the “activity in Kyn assay in BxPC-3 cells” value was “completely inactive”.
